According to patent US20240254121A1, “ALKYLAMIDE SUBSTITUTED, ANNULATED IMIDAZOLES AND USE THEREOF AS INSECTICIDES” (Bayer Aktiengesellschaft, priority 2021, published 2024):

What was measured:
Type in all cases: in vivo
[1] = system: larvae of the banded cucumber beetle (Diabrotica balteata); experiment: Diabrotica balteata spray test; details: 168 h, 100 g/ha (=32 μg/well), wheat seeds, after 7 days, read-out: efficacy (seedling growth)
Experimental: Diabrotica Balteata—Spray Test
• Solvent: 78.0 Parts by Weight of Acetone • 1.5 parts by weight of dimethylformamide • Emulsifier: Alkylarylpolyglycol Ether
(§1) To produce a suitable preparation of active compound, 1 part by weight of active compound is mixed with the stated amount of solvent, and the concentrate is diluted with water, containing an emulsifier concentration of 1000 ppm, to the desired concentration. Further test concentrations are prepared by dilution with emulsifier containing water.
Soaked wheat seeds (Triticum aestivum) are placed in a multiple well plate filled with agar and some water and are incubated for 1 day to germinate (5 seeds per well). The germinated wheat seeds are sprayed with a test solution containing the desired concentration of the active ingredient. Afterwards each unit is infected with 10-20 larvae of the banded cucumber beetle (Diabrotica balteata).
After 7 days efficacy in % is determined. 100% means all the seedlings have grown up like in the untreated, uninfected control; 0% means none of the seedlings have grown.

[2] = system: larvae of the southern green stink bug (Nezara viridula); experiment: Nezara viridula spray test; details: 96 h, barley plants, after 4 days
Experimental: Nezara viridula—Spray Test • Solvent: 78.0 parts by weight of acetone • 1.5 parts by weight of dimethylformamide • Emulsifier: alkylarylpolyglycol ether
as §1
Barley plants (Hordeum vulgare) are sprayed with a test solution containing the desired concentration of the active ingredient and are infested with larvae of the southern green stink bug (Nezara viridula).
After 4 days mortality in % is determined. 100% means all the stink bugs have been killed; 0% means none of the stink bugs have been killed.

[3] = system: green peach aphid (Myzus persicae); experiment: Myzus persicae oral test; details: 120 h, after 5 days
Experimental: Myzus persicae—Oral Test • Solvent: 100 parts by weight acetone
(§2) To produce a suitable preparation of active compound, 1 part by weight of active compound is mixed with the stated amount of solvent, and the concentrate is diluted with water to the desired concentration.
(§3) 50 μL compound solution is filled in microtiter plates and 150 μL IPL41 insect medium (33%+15% sugar) is added to obtain a total volume of 200 μL per well. Afterwards the plates are sealed with parafilm through which a mixed population of the green peach aphid (Myzus persicae) can suck on the compound preparation.
(§4) After 5 days mortality in % is determined. 100% means all aphids have been killed and 0% means none of the aphids have been killed.

[4] = system: adult mosquitoes Aedes aegypti strain MONHEIM; experiment: Aedes aegypti test (AEDSAE surface treatment & contact assay); details: 24 hours after contact, read-out: efficacy (mortality); for mortality at 4 mg/m2: surface concentration 4 mg/m^2, 30 minutes exposure; for mortality at 20 mg/m2: surface concentration 20 mg/m^2, 30 minutes exposure
Experimental: Aedes aegypti Test (AEDSAE Surface Treatment & Contact Assay) • Solvent: Aceton+2000 ppm rapeseed oil methyl ester (RME)
(§5) In order to produce a sufficient, active ingredient containing solution it is necessary to solve the test compound in the solvent-mix (acetone at 2 mg/ml/RME 2000 ppm). This solution is pipetted onto a glazed tile and after evaporation of the acetone, adult mosquitoes of the species Aedes aegypti strain MONHEIM are placed onto the dried surface. The exposure time is 30 minutes. Mortality in percent (%) is determined 24 hours after contact of the insects to the treated surface. 100% mortality means that all tested insects are dead, whereas 0% means that no insect died.

[5] = system: adult mosquitoes Culex quinquefasciatus strain P00; experiment: Culex quinquefasciatus test (CULXFA surface treatment & contact assay); details: 24 hours after contact, read-out: efficacy (mortality); for mortality at 4 mg/m2: surface concentration 4 mg/m^2, 30 minutes exposure
Experimental: Culex quinquefasciatus Test (CULXFA Surface Treatment & Contact Assay) • Solvent: Aceton+2000 ppm rapeseed oil methyl ester (RME)
as §5, with “2,000” for “2000”, “Culex quinquefasciatus” for “Aedes aegypti”, “P00” for “MONHEIM”

[6] = system: cotton aphid (Aphis gossypii); experiment: Aphis gossypii oral test; details: 120 h, after 5 days
Experimental: Aphis gossypii—Oral Test • Solvent: 100 Parts by Weight Acetone
as §2
as §3, with “cotton” for “green peach”, “(Aphis gossypii)” for “(Myzus persicae)”
as §4

[7] = system: fall armyworm larvae (Spodoptera frugiperda); experiment: Spodoptera frugiperda spray test; details: 168 h, maize leaf sections, after 7 days
Experimental: Spodoptera frugiperda—Spray Test • Solvent: 78.0 parts by weight acetone • 1.5 parts by weight dimethylformamide • Emulsifier: alkylarylpolyglycol ether
as §1, with “solvents” for “solvent,”, “and” for “and the concentrate”
Maize (Zea mays) leaf sections are sprayed with a preparation of the active ingredient of the desired concentration. Once dry, the leaf sections are infested with fall armyworm larvae (Spodoptera frugiperda).
After 7 days mortality in % is determined. 100% means all caterpillars have been killed and 0% means none of the caterpillars have been killed.

[8] = system: cattle tick larvae (Rhipicephalus microplus); experiment: Rhipicephalus (Boophilus) microplus in-vitro contact test, larval cattle tick (strain Parkhurst, resistant against synthetic pyrethroids); details: 1 μg/cm^2 (=100 g/ha), after 48 hours, read-out: efficacy (larvae dead or moribund)
Experimental: Rhipicephalus (Boophilus) Microplus—In-Vitro Contact Tests Larval Cattle Tick (Strain Parkhurst, Resistant Against Synthetic Pyrethroids)
9 mg compound is solved in 1 mL acetone and diluted with acetone to the desired concentration. 250 μL of the test solution is filled in 25 mL glass test tubes and homogeneously distributed on the inner walls by rotation and tilting on a shaking device (2 h at 30 rpm). With a compound concentration of 900 ppm, an inner surface of 44.7 cm^2 and a homogeneous distribution, a dose of 5 μg/cm^2 is achieved.
After the solvent has evaporated, each test tube is filled with 20-50 cattle tick larvae (Rhipicephalus microplus), closed with a perforated lid and incubated in a horizontal position at 85% relative humidity and 27° C. in an incubator. After 48 hours efficacy is determined. The larvae are patted on the ground of the tubes and negative geotactic behavior is recorded.
An efficacy of 100% means all larvae are dead or moribund; 0% means no larvae are dead or moribund.

[9] = system: adult flies Musca domestica strain WHO-N; experiment: Musca domestica test (MUSCDO surface treatment & contact assay); details: 24 hours after contact, read-out: efficacy (mortality); for mortality at 4 mg/m2: surface concentration 4 mg/m^2, 30 minutes exposure; for mortality at 20 mg/m2: surface concentration 20 mg/m^2, 30 minutes exposure
Experimental: Musca domestica Test (MUSCDO Surface Treatment & Contact Assay) • Solvent: Aceton+2000 ppm rapeseed oil methyl ester (RME)
as §5, with “flies” for “mosquitoes”, “Musca domestica” for “Aedes aegypti”, “WHO-N” for “MONHEIM”

Compound | pest or weed control at 32 µg/disc, 100 g/ha [1] | mortality at 500 g/ha [2] | mortality at 100 g/ha [7] | further results
CC(NC(=O)c1cc(C(F)(F)F)cc(C(F)(F)F)c1)c1nc2cnccc2n1-c1ccc(Cl)cn1 (centres unmarked) [Example I-39, N-[1-[1-(5-chloro-2-pyridyl)imidazo[4,5-c]pyridin-2-yl]ethyl]-3,5-bis(trifluoromethyl)benzamide] | 100% | 100% |  | 
COC(=O)c1ccc(-n2c(C(C)NC(=O)c3cc(OC(F)(F)F)cc(S(C)(=O)=O)c3)nc3cccnc32)nc1 (centres unmarked) [Example I-24] |  |  |  | mortality at 20 ppm [3]: 100%; mortality at 4 mg/m2 [4]: 80 to 100%; mortality at 20 mg/m2 [4]: 80 to 100%; mortality at 4 mg/m2 [5]: 80 to 100%; mortality at 20 mg/m2 ([5]; surface concentration 20 mg/m^2, 30 minutes exposure): 80 to 100%; mortality at 100 ppm [6]: 100%
CC(NC(=O)c1cc(C#N)cc(OC(F)(F)F)c1)c1nc2cccnc2n1-c1ccc(C#N)cn1 (centres unmarked) [Example I-42] |  |  | 100% | 
C[C@H](NC(=O)c1cc(C(F)(F)F)cc(C(F)(F)F)c1)c1nc2ncccc2n1-c1ccc(C#N)cn1 [Example I-32] |  |  | 100% | 
C[C@H](NC(=O)c1cc(C#N)cc(C(C)(C)C#N)c1)c1nc2cccnc2n1-c1ccc(C#N)cn1 [Example I-7] |  |  | 100% | mortality at 20 ppm [3]: 100%; mortality at 20 mg/m2 [4]: 80 to 100%; mortality at 100 ppm [6]: 100%; pest or weed control at 1 µg/cm2, 100 g/ha [8]: 90%
C[C@H](NC(=O)c1cc(Cl)cc(S(C)(=O)=O)c1)c1nc2cccnc2n1-c1ccc(C#N)cn1 [Example I-5] |  | 100% | 100% | mortality at 20 ppm [3]: 100%; mortality at 100 ppm [6]: 100%
CC(NC(=O)c1cc(OC(F)(F)F)cc(S(C)(=O)=O)c1)c1nc2cccnc2n1-c1ccc(Cl)cn1 (centres unmarked) [Example I-12] | 100% | 100% | 100% | 
CC(NC(=O)c1cc(C(F)F)cc(C(F)F)c1)c1nc2cccnc2n1-c1ccc(C#N)cn1 (centres unmarked) [Example I-44] |  |  | 83% | 
CC(NC(=O)c1cc(Br)cc(OC(F)(F)F)c1)c1nc2cccnc2n1-c1ccc(C#N)cn1 (centres unmarked) [Example I-41] | 100% |  | 100% | 
CC(NC(=O)c1cc(OC(F)(F)F)cc(S(C)(=O)=O)c1)c1nc2cccnc2n1-c1ccc(C(=O)N(C)C)cn1 (centres unmarked) [Example I-29] |  | 90% |  | 
C[C@H](NC(=O)c1cc(OC(F)(F)F)cc(OC(F)(F)F)c1)c1nc2cccnc2n1-c1ccc(C#N)cn1 [Example I-16] | 100% |  | 100% | mortality at 4 mg/m2 [4]: 80 to 100%; mortality at 20 mg/m2 [4]: 80 to 100%; mortality at 4 mg/m2 [9]: 80 to 100%; mortality at 20 mg/m2 [9]: 80 to 100%; pest or weed control at 1 µg/cm2, 100 g/ha [8]: 100%
Cc1ccc2nc(C(C)NC(=O)c3cc(OC(F)(F)F)cc(S(C)(=O)=O)c3)n(-c3ccc(C#N)cn3)c2n1 (centres unmarked) [Example I-23] |  |  | 100% | 
CC(NC(=O)c1cc(OC(F)(F)F)cc(C(C)(F)F)c1)c1nc2cccnc2n1-c1ccc(C#N)cn1 (centres unmarked) [Example I-37] | 100% |  | 100% | 
CC(NC(=O)c1cc(OC(F)(F)F)cc(S(=O)(=O)C(F)F)c1)c1nc2cccnc2n1-c1ccc(C#N)cn1 (centres unmarked) [Example I-36] | 100% |  | 100% | 
CC(NC(=O)c1cc(Cl)cc(S(C)(=O)=O)c1)c1nc2cccnc2n1-c1ccc(Cl)cn1 (centres unmarked) [Example I-10] |  | 100% | 100% | mortality at 20 ppm [3]: 100%; mortality at 4 mg/m2 [4]: 80 to 100%; mortality at 20 mg/m2 [4]: 80 to 100%; mortality at 4 mg/m2 [5]: 80 to 100%; mortality at 100 ppm [6]: 100%
CNC(=O)c1ccc(-n2c(C(C)NC(=O)c3cc(OC(F)(F)F)cc(S(C)(=O)=O)c3)nc3cccnc32)nc1 (centres unmarked) [Example I-28] |  | 100% |  | 
CC(NC(=O)c1cc(C(F)(F)F)cc(C(F)(F)F)c1)c1nc2cccnc2n1-c1ccc(C(N)=O)cn1 (centres unmarked) [Example I-30] |  | 100% |  | 
Cc1ccc2nc(C(C)NC(=O)c3cc(Cl)cc(OC(F)(F)F)c3)n(-c3ccc(C#N)cn3)c2n1 (centres unmarked) [Example I-20] |  |  | 100% | 
CC(NC(=O)c1cc(Cl)cc(OC(F)(F)F)c1)c1nc2cc(F)cnc2n1-c1ccc(C#N)cn1 (centres unmarked) [Example I-34] | 100% |  | 100% | 
CC(NC(=O)c1cc(OC(F)(F)F)cc(C2CC2)c1)c1nc2ncccc2n1-c1ccc(Cl)cn1 (centres unmarked) [Example I-33, N-[1-[I-(5-chloro-2-pyridyl)imidazo[4,5-b]pyridin-2-yl]ethyl]-3-cyclopropyl-5-(trifluoromethoxy) benzamide] |  |  | 100% | mortality at 4 mg/m2 [5]: 80 to 100%
CC(NC(=O)c1cc(OC(F)(F)F)cc(C2(C#N)CC2)c1)c1nc2cccnc2n1-c1ccc(Cl)cn1 (centres unmarked) [Example I-11] | 100% |  | 100% | mortality at 20 mg/m2 [4]: 80 to 100%; mortality at 4 mg/m2 [9]: 80 to 100%; mortality at 20 mg/m2 [9]: 80 to 100%; pest or weed control at 1 µg/cm2, 100 g/ha [8]: 90%
CC(NC(=O)c1cc(OC(F)(F)F)cc(C(C)(C)C#N)c1)c1nc2cccnc2n1-c1ccc(Cl)cn1 (centres unmarked) [Example I-14] |  |  | 83% | mortality at 20 mg/m2 [4]: 80 to 100%; mortality at 20 mg/m2 [9]: 80 to 100%; pest or weed control at 1 µg/cm2, 100 g/ha [8]: 100%
